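Five compound concentrations were applied to cells in 96-well plates for 48 hours; endpoints were derived by simple linear interpolation of the resulting dose-response curve. TGI marks complete inhibition of growth.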
Tests used:
Test in all cases: NCI-60 cell line screen, 48 h
EKVX NSCLC = test system: EKVX NSCLC
KM12 colon = test system: KM12 colon
M14 melanoma = test system: M14 melanoma
MCF7 breast = test system: MCF7 breast
MDA-MB-231 breast = test system: MDA-MB-231 breast
OVCAR-4 ovarian = test system: OVCAR-4 ovarian
SF-268 CNS = test system: SF-268 CNS
SN12C renal = test system: SN12C renal
TK-10 renal = test system: TK-10 renal
U251 CNS = test system: U251 CNS

Row | Compound | TGI (EKVX NSCLC) [µM] | TGI (KM12 colon) [µM] | TGI (M14 melanoma) [µM] | TGI (MCF7 breast) [µM] | TGI (MDA-MB-231 breast) [µM] | TGI (OVCAR-4 ovarian) [µM] | TGI (SF-268 CNS) [µM] | TGI (SN12C renal) [µM] | TGI (TK-10 renal) [µM] | TGI (U251 CNS) [µM]
1 | c1ccc2c3c(c(N4CCNCC4)nc2c1)CCCC3 | 21.1 | 33.7 | 19 | 27.6 | 27.4 | 31.5 | 33.8 | 31.1 | 26.6 | 26.2
2 | O=C1NC(N2CCOCC2)=N/C1=C\c1ccccc1 | > 100 | > 100 | > 100 | > 100 | > 100 | > 100 | > 100 | > 100 | > 100 | > 100
3 | O=C(OCc1ccccc1[N+](=O)[O-])N1c2ccccc2[C@@]23O[C@]24CCC[C@H]3C#C/C=C\C#C[C@H]14 | > 100 | > 100 | > 100 | > 100 | > 100 | > 100 | > 100 | 68.2 | > 100 | > 100
4 | CCOC(=O)C(C(N)=O)c1nc2cc([N+](=O)[O-])ccc2nc1/C=C(\O)c1ccc(C)cc1 (stereo not given) | > 100 | > 100 | > 100 | > 60.5 | 46.7 | > 100 | 35.8 | 85.5 | 30.2 | 33.5
5 | Brc1ccc2c(c1)[C@H]1CCc3c([nH]c4ccccc34)[C@H]1N2 | 22.6 | 18.6 | 29.9 | 18.6 | 12.3 | 26.3 | 32.4 | 27.2 | 23.3 | 21.7
6 | O=C(NCCc1ccc(F)cc1)c1cc(/C=C/c2cc(O)ccc2O)ccc1O | 6.38 | 38 | 12.5 | 10.1 | 10.5 | 12 | 12.2 | 21.1 | 5.64 | 4.49
7 | COC(=O)/C=C1\C(=O)N(C(C)=O)c2ccccc21 | 31 | 29.2 | 58.7 | 28.2 | 21.3 | 17.5 | > 61.3 | 24.3 | 21.7 | 37.2
8 | CC1CCC(O)/C=C/C(=O)OC(C)C(O)/C=C/C(=O)O1 (stereo not given) | > 100 | > 100 | > 100 | > 100 | > 100 | > 100 | > 100 | > 100 | > 100 | > 100
9 | Nc1c2c(nc3ccccc13)-c1ccccc1CCC2 | 44.8 | 33.4 | 25.8 | 28.6 | 27.8 | 35.6 | 37.2 | 36.5 | 25.2 | 28.3
10 | Cc1cc([C@H](C#N)c2nc3ccccc3s2)nc(Cl)n1 | 59.4 | 9.08 | 79.2 | > 100 | 11 | > 100 | 24 | > 100 | 44.1 | 12.4
11 | N#CCCN(CCN(CCN(C(=O)Nc1ccccc1)c1ccccc1)C(=O)Nc1ccccc1)C(=O)Nc1ccccc1 | > 100 | > 100 | > 100 | > 100 | > 100 | > 100 | > 100 | > 100 | > 100 | > 100
12 | CCCCc1ccc(Nc2nc(N)c3[nH]cnc3n2)cc1 | 45.4 | 36.5 | 88 | 42.4 | 39 | 60.4 | 32.8 | 31.1 | 43.2 | 48
13 | CO/C=C(/C(=O)OC)c1ccccc1[C@H]1C[C@@H]1c1ccc(OC)cc1 | 50.2 | 68.8 | 51.6 | > 100 | 94.2 | 45 | 86.3 | > 100 | > 100 | > 100
14 | NCCCCN(CCCN)C(=O)OCc1ccccc1 | > 100 | > 100 | > 100 | > 100 | > 100 | > 100 | > 100 | > 100 | > 100 | > 100
15 | COc1ccc(NC(=O)c2cc(NC(=O)/C=C/c3ccccc3)c(OC)c(OC)c2)cc1 | > 100 | > 100 | > 100 | > 100 | > 100 | > 100 | > 100 | > 100 | > 100 | > 100
16 | NC1=CN2c3ccccc3N(CC(=O)N3CCOCC3)C2C=C1 (stereo not given) | > 100 | > 100 | > 100 | > 100 | > 100 | > 100 | > 100 | > 100 | > 100 | > 100
17 | O=C1CCCc2ccc3c(c21)CC1(Cc2cc4c(cc2C1)CCCC4)C3 | 81.9 | 66.3 | 33.2 | 56.7 | 38.2 | 50.9 | 77.1 | 54.2 | 46.2 | 44.4
18 | CSc1nc(NC2CC2)c2c(n1)Sc1nc3ccccc3n1N=C2 | 98.7 | > 100 | > 100 | 96.2 | 48.9 | 55.8 | 80.7 | 33.4 | 62.4 | 61.8
19 | Oc1cccc(-c2cc(=S)ss2)c1 | 31.5 | 43 | 37.7 | 27.5 | 31.5 | 40.6 | 32.6 | 36.5 | 33.1 | 28.5
20 | Nc1nc(-c2ccccc2)cc(-c2ccc(F)cc2)c1-c1ccc(Cl)cc1 | > 100 | > 100 | > 100 | > 100 | > 100 | > 100 | > 100 | > 100 | > 100 | > 100
21 | Clc1ccc2nc3c(c(-c4ccccc4)nn3-c3ccccc3)c(-c3ccccc3)c2c1 | > 100 | > 100 | > 100 | > 100 | > 100 | > 100 | > 100 | > 100 | > 100 | > 100
